Test results from patent US20130184462A1, “METHOD FOR PREDICTING AND MODELING ANTI-PSYCHOTIC ACTIVITY USING VIRTUAL SCREENING MODEL” (COUNCIL OF SCIENTIFIC & INDUSTRIAL RESEARCH, priority 2010, published 2013).

Test system: amphetamine induced hyperactivity mice model
Experiment: Amphetamine induced hyperactivity mouse model
Conditions: in-vitro and in-vivo evaluation, FIGS. 3 and 4
Description: The animals were housed in plastic polypropylene cages under standard animal house conditions with a 12 hours light/dark cycle and temperature of 25±2° C.
The mice randomly grouped in batches of seven animals per group. The basal motor activity (distance traveled) of each mouse was recorded individually using automated activity monitor (TSE, Germany). After basal activity recording, a group of seven animals were challenged with amphetamine [5.5 mg/kg, intra peritoneal (i.p) dissolved in normal saline]. After 30 min. amphetamine injection, motor activity was recorded for individual animal for 5 min.
The difference in motor activity as indicated by distance traveled in animals with amphetamine alone treated and animals with samples plus amphetamine challenge was recorded as inhibition in hyper activity caused by amphetamine and data presented as percent inhibition in amphetamine induced hyperactivity.

| Structure (SMILES) | antipsychotic activity in-vitro and in-vivo |
| --- | --- |
| COC(=O)C1C(OC(C)=O)CCC2CN3CCc4c([nH]c5ccccc45)C3CC21 (stereo not drawn) [K001A, 17-O-acetyl α-yohimbine] | potential antipsychotic activity |
| COC(=O)C1C(OC(=O)c2cccc([N+](=O)[O-])c2)CCC2CN3CCc4c([nH]c5ccccc45)C3CC21 (stereo not drawn) [K001C, 17-O-(3″)-nitrobenzoyl α-yohimbine] | potential antipsychotic activity |
| COC(=O)C1C(OC(=O)c2ccc([N+](=O)[O-])cc2)CCC2CN3CCc4c([nH]c5ccccc45)C3CC21 (stereo not drawn) [K001E, 17-O-(4″)-nitrobenzoyl-α-yohimbine] | potential antipsychotic activity |
| COC(=O)C1C(OC(=O)C=Cc2ccccc2)CCC2CN3CCc4c([nH]c5ccccc45)C3CC21 (stereo not drawn) [K001F, 17-O-cinnamoyl α-yohimbine] | potential antipsychotic activity |
